Reference: patent US11766413B2 (Nacuity Pharmaceuticals, Inc., priority 2019, dated 2023)
Entries after “also recorded” stand apart in the source; their conditions may differ.

Assays:
[1] = Evaluation of retinal penetration of NACA: NACA and NAC levels in plasma, aqueous, vitreous and retina after NACA in drinking water; format: in vivo, mice (rd10/rd10 and wild type C57/BL6); settings: for concentration at 7 days: mouse, retina, oral, 20 mg/mL in drinking water, 20 mg/mL NACA in drinking water, P28 to P35, estimated dose 60-80 mg/day; for mean levels in the retina compared with plasma / measurability in the retina: animals treated with NACA; for measurability in the retina: N=20 eyes per strain; for measurements in aqueous, vitreous and retina: nearly all measurements, limit of quantification of the assay
Experimental: Animals and Treatments. Mice were treated in accordance with the recommendations of the Association for Research in Vision and Ophthalmology. Litters of homozygous rd10/rd10 mice (B6.CXB1-Pde6brd10/J) and wild type C57/BL6 mice (The Jackson Laboratory, Bar Harbor, Me.) were used for these studies.
Starting on post-natal day 28 (P28), animals were given normal drinking water (n=10 for each strain) or water containing 20 mg/ml NACA (n=10 for each strain).
Analysis of NACA and NAC. Upon sacrifice of the mice on P35, retina, aqueous, vitreous and plasma were collected, weighed, and stabilized as quickly as possible and stored at −80° C. prior to shipment to AIT Bioscience, LLC (Indianapolis, Ind.). The bioanalytical method (BAM.0445.01) for the quantitation of total NAC NACA in K2EDTA was based on derivatization, protein precipitation extraction, and LC-MS/MS instrumental analysis. Any disulfides were reduced to free thiols and subsequently reacted with 2-chloro-1-methylpyridinium iodide (CMPI) to form stable thioethers. The thioether derivatives were detected by LC-MS/MS. Stable label isotope internal standards were used. The method covered a concentration range from 50.0 to 50,000 ng/mL. The thiol moiety of NAC, NACA, and their respective internal standards oxidizes quickly in plasma through formation of disulfides. In order to determine total NAC and total NACA levels in plasma, tris(2-carboxyethyl)phosphine (TCEP) is added during the extraction to reduce disulfide bonds. Ammonium bicarbonate is added to control sample pH near neutral, as TCEP will otherwise acidify the aliquoted samples and hinder derivatization. The free analyte is then derivatized to a stable thioether using 2-chloro-1-methylpyridinium iodide (CMPI). N-acetyl-L-cysteine is used as the reference standard. The assay would not discern the enantiomer, N-acetyl-D-cysteine, if present. A sample volume of 25.0 μL was aliquotted into a 1.2 mL 96-well plate to which was added, in sequence, 25.0 μL internal standard solution (1000 ng/mL NAC-D3 and 1000 ng/mL NACA-D3 in water), 50.0 μL of ammonium bicarbonate (100 mM), 5.0 μL CMPI (60 mM in water), and 5.0 μL of TCEP (60 mM in water). Samples were allowed to react for 30 minutes. To precipitate proteins, 500 μL of acetonitrile was then added to all samples. The plate was covered and the mixtures were shaken and centrifuged. A 50.0 μL aliquot of the supernatant was transferred from each well to a clean plate containing 400 μL of water-acetonitrile (25-75) in each well, and mixed well prior to LC-MS injection.
Samples were analyzed on a Waters Acquity liquid chromatograph interfaced with a Thermo Scientific TSQ Vantage triple quadrupole mass spectrometer with ESI ionization. Each extracted sample was injected (5.0 μL) onto a Waters BEH HILIC column (2.1×100 mm; 1.7 μm) equilibrated at 35° C. Mobile Phase A was ammonium formate (25 mM, pH 3.8). Mobile Phase B was acetonitrile. The LC gradient is tabled below: […]
Peak area ratios from the calibration standard responses were regressed using a (1/concentration^2) linear fit for N-Acetyl-L-Cysteine and N-Acetylcysteine amide.
Evaluation of Retinal Penetration of NACA. To determine retinal levels of NACA/NAC after administration of 20 mg/mL NACA in drinking water for 7 days. This experiment will provide rapid confirmation that NACA and/or NAC penetrate the retina following oral administration. This experiment will also evaluate if the breakdown in the blood-retinal barrier in RP affects the levels of NACA in the retina by comparing animals with RP to wild type mice.
Rd10 and C57BL/6 wild type mice will begin treatment at P28 and at P35 mice will be euthanized and plasma, vitreous and retina samples will be sent to AITB for determination of NAC and NACA levels. Experimental groups: (n=10/group). The research was performed in 3 discrete experiments: […]

[2] = humans, oral dose of 600 mg; cited from earlier work
[3] = test system: diabetic rats; settings: cited from earlier work
[4] = biological target: T1, glutamate cysteine ligase (GCL, EC 6.3.2.2) (Homo sapiens, UniProt P48506); settings: substrate of GCL; read-out: apparent Km; cited from earlier work
T1 sequence (P48506 1-637): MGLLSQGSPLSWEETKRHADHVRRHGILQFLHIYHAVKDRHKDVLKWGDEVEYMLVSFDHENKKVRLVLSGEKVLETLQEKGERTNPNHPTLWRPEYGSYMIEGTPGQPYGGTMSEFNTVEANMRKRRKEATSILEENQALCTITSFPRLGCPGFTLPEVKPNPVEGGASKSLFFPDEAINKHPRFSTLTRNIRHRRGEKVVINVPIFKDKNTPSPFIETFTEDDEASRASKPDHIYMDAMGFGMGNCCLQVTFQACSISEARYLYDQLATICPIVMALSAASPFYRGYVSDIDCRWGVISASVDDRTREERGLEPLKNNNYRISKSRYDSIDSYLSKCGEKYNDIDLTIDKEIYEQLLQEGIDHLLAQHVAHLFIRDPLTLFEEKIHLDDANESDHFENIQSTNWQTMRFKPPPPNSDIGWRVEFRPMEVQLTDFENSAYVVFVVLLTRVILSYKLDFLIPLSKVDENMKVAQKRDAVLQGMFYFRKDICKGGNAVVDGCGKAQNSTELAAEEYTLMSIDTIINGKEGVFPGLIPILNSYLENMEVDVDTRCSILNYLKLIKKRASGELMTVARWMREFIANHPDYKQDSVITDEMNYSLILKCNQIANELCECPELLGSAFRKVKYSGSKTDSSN
T1 sequence (P48507 1-274 partner): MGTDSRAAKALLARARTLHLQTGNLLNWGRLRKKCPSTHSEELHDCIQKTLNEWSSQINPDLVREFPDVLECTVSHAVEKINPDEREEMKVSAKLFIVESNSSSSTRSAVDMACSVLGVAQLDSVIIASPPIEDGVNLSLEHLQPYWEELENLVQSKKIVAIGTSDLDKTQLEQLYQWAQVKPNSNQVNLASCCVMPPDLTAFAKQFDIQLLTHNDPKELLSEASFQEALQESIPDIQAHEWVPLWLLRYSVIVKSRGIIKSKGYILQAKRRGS

[5] = 20 mg/ml NACA in drinking water

| mean levels in aqueous humor compared with plasma [1, 5] | concentration at 7 days ([1]; C57/BL6 (wild type), wild type mice) [ng/g] | mean concentration in the aqueous humor, rd10 compared with wild type ([1]; N=8 eyes rd10, N=10 C57/B16) | mean levels in the retina compared with plasma [1] | measurability in the retina [1] | mean NACA levels in plasma compared with NAC levels ([1]; both strains, 20 mg/ml NACA in drinking water, N=10 per strain) | measurements in aqueous, vitreous and retina [1] | concentration at 7 days ([1]; rd10/rd10 (B6.CXB1-Pde6brd10/J), rd10 mice) [ng/g] | Compound | mean levels in plasma, rd10 compared with wild type [1, 5] | ratio of NACA:NAC in the retina, rd10 compared with C57/B16 ([1]; oral NACA 20 mg/mL in drinking water) | time after administration at which no NAC is detectable [2] [h] | expression of VEGF and ICAM-1 ([3]; after 5-month treatment) | up-regulation of VEGF and ICAM-1 expression in retinal blood vessels [3] | reactive oxygen species contents in the retinas ([3]; most significantly at 5 months) | retinal pathological changes (electron and light microscopy) ([3]; sacrificed at 3 and 5 months) | Km [4] [µM] |
| --- | --- | --- | --- | --- | --- | --- | --- | --- | --- | --- | --- | --- | --- | --- | --- | --- |
| lower than in plasma | ~2400 | higher in rd10 mice than wild type | higher than those observed in plasma | measurable in all animals | greater than the NAC levels | BLQ | ~6500 | CC(=O)N[C@@H](CS)C(N)=O | greater in rd10 mice than in the wild type | penetrated retina to a greater extent in rd10 mice than in C57/B16 mice; also recorded: greater in the retina of rd10 mice than in C57/B16 mice |  |  |  |  |  |  |
| lower than in plasma |  |  | higher than those observed in plasma | measurable in all animals |  | BLQ |  | CC(=O)N[C@@H](CS)C(=O)O [NAC, N-acetyl-L-cysteine, reference compound] | greater in rd10 mice than in the wild type |  | 10 to 12 | returned to basal levels | attenuated | decreased reactive oxygen species | alleviated the pathological changes |  |
|  |  |  |  |  |  |  |  | N[C@@H](CS)C(=O)O [cysteine, L-cysteine] |  |  |  |  |  |  |  | 100 to 300 |
